Assay [1] deals with MDA-MB-231 cells. As to the kind of experiment: Cell viability assay. The assay is classed as cell-based, human. The conditions noted are these: for sensitivity to PARP inhibitor, clonogenic cell survival and cell viability: c-Met knockdown vs control, cells expressing wild-type PARP1, FIGS. 3H, 13D-E; for sensitivity of cells to PARP inhibitors: MDA-MB-231, c-Met inhibitor with ABT-888 (cell viability) or AG014699 (clonogenic), FIGS. 2D-E, 8D. The method, then: Cells (1,500) were seeded in a 96-well plate and treated with the indicated inhibitors for 72 h. Then cells were incubated in fresh media with 100 μM resazurin for 1 h. Cell viability was measured by fluorescent plate readers at spectra of 560EX nm/590EM nm. Survival curves were expressed as mean±s.d. relative to DMSO-treated control from three independent experiments.
Cell growth was measured by cell viability, clonogenic cell survival, or soft agar anchorage-independent cell growth assay.

For assay [2], the system named is patients with TNBC. The conditions noted are these: phase 3; cited from earlier work.
Assay [3] concerns patients with TNBC. The note with it: phase 2, combined with chemotherapy; cited from earlier work.
For assay [4], the system named is phosphorylation of PARP1 at Y907. As to the kind of experiment: Western blot of H2O2-induced PARP1 pY907 in MDA-MB-231 cells. Type of assay: cell-based, human. The conditions noted are these: pre-treatment before H2O2; FIG. 3G. The method, then:
For immunoprecipitation (IP), lysates of cells treated as described in the text were precleared with 1 μg of mouse or rabbit IgG and 20 μl of protein G-agarose (Roche, Indianapolis, Ind.) for 1 h at 4° C. Pre-cleared lysates were incubated with 1 μg of primary antibodies or anti-IgG antibody at 4° C. overnight with gentle agitation. Lysates were further incubated with protein G-agarose for 30 min at 4° C. Protein G-agarose pellets were collected and washed three times at 4° C. The immunoprecipitants were subjected to sodium dodecyl sulfate-polyacrylamide gel electrophoresis (SDS-PAGE) and western blot analysis as described previously (Du et al., 2014).
(In western blotting, separated proteins are transferred to a membrane and probed.)

The test system of assay [5] is γH2AX foci formation in MDA-MB-231 cells. Description: γH2AX foci formation by immunofluorescence confocal microscopy. The assay is classed as cell-based, human. The note with it: c-Met inhibitor together with PARP inhibitor ABT-888; FIG. 3A.
Method: Briefly, cells grown on chamber slides (Labtek, Scotts Valley, Calif.) were treated as described in the text. After washing with ice-cold PBS, cells were fixed, permeabilized, and incubated with primary antibodies and fluorescence-labeled secondary antibodies. Immunostained cells were examined using a Zeiss LSM 710 laser-scanning microscope (Carl Zeiss, Thornwood, N.Y.) with a 63×/1.4 objective. The ZEN and AxioVison (Carl Zeiss) and Image J software programs (National Institutes of Health, Bethesda, Md.) were used for data analysis. The mean±s.d. of fluorescence intensity of the indicated antibodies from five images in each treatment group was calculated.
Assay [6] deals with PARP1 Y907 phosphorylation. Description: PARP1-pY907 staining of MDA-MB-231 xenograft tumor tissues. The note with it: tissues harvested within 24 h after last treatment; FIG. 4O. Type of assay: in vivo, nude mice. On the procedure:
All animal procedures were conducted under the approval of the Institutional Animal Care and Use Committee (IACUC) at MD Anderson Cancer Center (protocol number 10-14-07231). Female nude mice at 6-8 weeks of age were injected in their mammary fat pads with 0.5×10^6 MDA-MB-231 cells, 2×10^6 HCC1937 cells or 5×10^6 MCF-7 cells. Female FBV at 6-8 weeks of age were injected in their mammary fat pads with 0.5×10^6 A1034 cells. H1993 cells were injected subcutaneously into the right flank of female nude mice at 6-8 weeks of age. For MDA-MB-231 and A1034 cells xenograft mouse models, mice were imaged with the IVIS Imaging System 5 days after injection and were divided into treatment groups (n=10). […] After 2 weeks of treatment, tumor sizes were assessed using with the IVIS Imaging System. Mice were injected with 100 μl of D-luciferin (Xenogen; 15 mg/ml in PBS). After 10 min, mice were anesthetized with a mixture of oxygen and isoflurane (Inhalation Anesthesia System; Matrix Medical, Orchard Park, N.Y.) and underwent imaging with the IVIS Imaging System. Imaging parameters were maintained across experiments for comparative analyses. Tumor samples were collected after final treatment and analyzed by immunofluorescence staining. For toxicity assessment, mice were weighed before and after treatment. Blood samples were collected after treatment. […]

Assay [7] concerns patients with wild-type BRCA. The conditions noted are these: cited from earlier work.

Take `C[C@]1(c2nc3c(C(N)=O)cccc3[nH]2)CCCN1` [ABT-888, Veliparib]: in assay [1], the “sensitivity to PARP inhibitor, clonogenic cell survival and cell viability” value was “more sensitive”.

Take `NC(=O)c1ccc(I)c([N+](=O)[O-])c1` [iniparib]: the “overall survival or progression free survival benefit” value in assay [2] is “did not provide significant overall survival or progression free survival benefit”. Besides, in assay [3], the clinical benefit result was “improved clinical benefits”.

For `COc1cc2c(Oc3ccc(NC(=O)C4(C(=O)Nc5ccc(F)cc5)CC4)cc3F)ccnc2cc1OCCCN1CCOCC1` [foretinib], the “sensitivity of cells to PARP inhibitors” value in assay [1] is given as “enhanced the sensitivity of cells to PARP inhibitors”. For the same compound, in assay [4], the “phosphorylation of PARP1 at Y907 induced by H2O2” value was “abolished phosphorylation of PARP1 at Y907”.

Turning to `C[C@@H](Oc1cc(-c2cnn(C3CCNCC3)c2)cnc1N)c1c(Cl)ccc(F)c1Cl` [crizotinib], in assay [5], the “γH2AX foci formation (marker of DNA damage)” value is on record as “enhanced γH2AX foci formation”. Besides, the “PARP1 Y907 phosphorylation in tumor tissue” value in assay [6] is “inhibited”. Moreover, the “sensitivity of cells to PARP inhibitors” value in assay [1] is reported as “enhanced the sensitivity of cells to PARP inhibitors”. In addition, in assay [4], the “phosphorylation of PARP1 at Y907 induced by H2O2” value is recorded as “abolished phosphorylation of PARP1 at Y907”.

Take `CNCc1ccc(-c2[nH]c3cc(F)cc4c3c2CCNC4=O)cc1` [AG014699, Rucaparib]: in assay [1], the “sensitivity to PARP inhibitor, clonogenic cell survival and cell viability” value is listed as “more sensitive”.

Regarding `O=C(c1cc(Cc2n[nH]c(=O)c3ccccc23)ccc1F)N1CCN(C(=O)C2CC2)CC1` [olaparib], the clinical response result in assay [7] is on record as “demonstrated response”.

(Values after US10451610B2, “Prediction of response to PARP inhibitors and combinational therapy targeting C-MET and PARP1” (Board of Regents, The University of Texas System, priority 2014, dated 2019).)
